Biological target: recombinant human SYK (GST-hSYK fusion protein) (Homo sapiens, UniProt P43405)
Assay: biochemical
Settings: RHSYK Activity, Table 54A
From the text: Homogeneous Time-Resolved Fluorescence (HTRF) Assay for the Recombinant Human SYK Enzyme:

Row | IC50 [nM] | Compound
1 | < 100 | Cc1cc(Nc2nccc(C(F)(F)F)n2)cc(-c2cnc(C3(O)CCN(C(=O)C(O)C(F)(F)F)CC3)s2)c1 (racemic) [Example 54A-60]

Same assay, conditions: Syk IC50, HTRF, recombinant human GST-SYK

Row | IC50 [nM] | Compound
2 | 1 | Cc1cc(Nc2nccc(C)n2)cc(-c2cnc([C@@]3(O)CC[C@H](C(=O)O)C(C)(C)C3)s2)c1

Same assay, conditions: rhSYK Activity (IC50), recombinant human GST-SYK 5 pM, ATP 25 μM, biotinylated substrate peptide 250 nM, HTRF, 10-dose titration

Row | IC50 [nM] | Compound
3 | < 100 | Cc1cc(Nc2nccc(OC3CCC(O)CC3)n2)cc(-c2cnc(C(C)(O)C(F)(F)F)s2)c1 (mixture of isomers) [Example 96, 4-{[2-({3-methyl-5-[2-(1,1,1-trifluoro-2-hydroxypropan-2-yl)-1,3-thiazol-5-yl]phenyl}amino)-pyrimidin-4-yl]oxy}cyclohexanol]
4 | < 100 | Cc1cc(Nc2nccc(C(F)(F)F)n2)cc(-c2cnc([C@@H](O)[C@H](O)c3ccc(C(=O)O)cc3)s2)c1 (relative stereo) [Example 146, 4-{(Cis)-1,2-dihydroxy-2-[5-(3-methyl-5-{[4-(trifluoromethyl)pyrimidin-2-yl]amino}phenyl)-1,3-thiazol-2-yl]ethyl}benzoic acid]
5 | < 100 | Cc1cc(Nc2nccc(C(F)(F)F)n2)cc(-c2cnc(C3CCC(C(N)=O)C(C)(C)C3)s2)c1 (single isomer, unassigned) [154(a), 2,2-Dim ethyl-4-[5-(3-methyl-5-{[4-(trifluoromethyl)pyrimidin-2-yl]amino}phenyl)-1,3-thiazol-2-yl]cyclohexanecarboxamide]
6 | < 100 | Cc1cc(Nc2nccc(C(F)(F)F)n2)cc(-c2cnc(C3(O)CCNC(=O)CC3O)s2)c1 (single isomer, unassigned) [161(B), [cis]-4,5-dihydroxy-5-[5-(3-methyl-5-{[4-(trifluoromethyl)pyrimidin-2-yl]amino}phenyl)-1,3-thiazol-2-yl]azepan-2-one]
7 | < 100 | Cc1cc(Nc2nccc(C(F)(F)F)n2)cc(-c2cnc(C3(O)CCC(=O)NCC3O)s2)c1 (single isomer, unassigned) [161(C), [cis]5,6-dihydroxy-5-[5-(3-methyl-5-{[4-(trifluoromethyl)pyrimidin-2-yl]amino}phenyl)-1,3-thiazol-2-yl]azepan-2-one]
8 | < 100 | Cc1cc(Nc2nccc(C(F)(F)F)n2)cc(-c2cnc(CNC(CO)C(C)O)s2)c1 (single isomer, unassigned) [Example 88A-43]
9 | < 100 | Cc1cc(Nc2nccc(C(C)O)n2)cc(-c2cnc(C3(O)CCC(C(=O)O)C(C)(C)C3)s2)c1 (single isomer, unassigned) [Example 100A-14]
10 | < 100 | Cc1cc(Nc2nccc(C(O)C3CC3)n2)cc(-c2cnc(C3(O)CCC(C(=O)O)C(C)(C)C3)s2)c1 (single isomer, unassigned) [Example 100A-18]
11 | < 100 | Cc1cc(Nc2nccc(C(F)C3CC3)n2)cc(-c2cnc(C3(O)CCC(C(=O)O)C(C)(C)C3)s2)c1 (single isomer, unassigned) [Example 100A-21]
12 | < 100 | Cc1cc(Nc2nccc(C(C)(O)C3CC3)n2)cc(-c2cnc(C3(O)CCC(C(=O)O)C(C)(C)C3)s2)c1 (single isomer, unassigned) [Example 100A-25]
13 | 100 to 1000 | Cc1cc(Nc2nccc(C(F)(F)F)n2)cc(-c2cnc(C3(O)CCNC(=O)CC3)s2)c1Br (single isomer, unassigned) [Example 111-1]
14 | < 100 | Cc1cc(Nc2nccc(C(F)(F)F)n2)cc(-c2cnc(C3(O)CCNC(=O)CC3)s2)c1Br (single isomer, unassigned) [Example 111-2]

Same assay, conditions: rhSYK Activity, Table 10, Formula A

Row | IC50 [nM] | Compound
15 | < 100 | Cc1cc(Nc2nccc(C(C)C)n2)cc(-c2cnc(C3(O)CCNC(=O)CC3)s2)c1 (single isomer, unassigned) [Example 10A-2]

Same assay, conditions: rhSYK Activity, Table 33-A

Row | IC50 [nM] | Compound
16 | < 100 | Cc1cc(Nc2ncc(Cl)cn2)cc(-c2cnc(C3(O)CCC(C(=O)O)C(C)(C)C3)s2)c1 (single isomer, unassigned) [Example 33A-43]
17 | 100 to 1000 | Cc1cc(Nc2ncc(F)cn2)cc(-c2cnc(C3(O)CCC(C(=O)O)C(C)(C)C3)s2)c1 (single isomer, unassigned) [Example 33A-46]
18 | < 100 | Cc1cc(Nc2ncc(F)cn2)cc(-c2cnc(C3(O)CCC(C(=O)O)C(C)(C)C3)s2)c1 (single isomer, unassigned) [Example 33A-47]
19 | < 100 | COC(=O)C1CCC(O)(c2ncc(-c3cc(CO)cc(Nc4nccc(C(F)(F)F)n4)c3)s2)CC1(C)C (single isomer, unassigned) [Example 33A-50]
20 | < 100 | CC1(C)CC(O)(c2ncc(-c3cc(CO)cc(Nc4nccc(C(F)(F)F)n4)c3)s2)CCC1C(=O)O (single isomer, unassigned) [Example 33A-51]
21 | < 100 | CC1(C)CC(O)(c2ncc(-c3cc(Nc4nccc(C(F)(F)F)n4)cc(C(F)F)c3)s2)CCC1C(=O)O (single isomer, unassigned) [Example 33A-57]
22 | < 100 | CC1(C)CC(O)(c2ncc(-c3cc(F)cc(Nc4nccc(C(F)(F)F)n4)c3)s2)CCC1C(=O)O (single isomer, unassigned) [Example 33A-63]
23 | < 100 | CC1(C)CC(O)(c2ncc(-c3cccc(Nc4nccc(C(F)(F)F)n4)c3)s2)CCC1C(=O)O (single isomer, unassigned) [Example 33A-66]
24 | < 100 | COc1ccnc(Nc2cc(C)cc(-c3cnc(C4(O)CCC(C(=O)O)C(C)(C)C4)s3)c2)n1 (single isomer, unassigned) [Example 33A-72]
25 | < 100 | Cc1cc(Nc2nccc(C(F)(F)F)n2)cc(-c2cnc(C3(O)CCC(C(=O)O)C(C)(C)C3C)s2)c1 (single isomer, unassigned) [Example 33A-77]

Same assay, conditions: rhSYK Activity, Table 33B

Row | IC50 [nM] | Compound
26 | < 100 | Cc1cc(Nc2nccc(C(F)(F)F)n2)cc(-c2cnc(C3(O)CCC(CC(=O)O)C3)s2)c1 (single isomer, unassigned) [Example 33B-25]

Same assay, conditions: rhSYK Activity, Table 33D

Row | IC50 [nM] | Compound
27 | < 100 | Cc1cc(Nc2nccc(C(F)(F)F)n2)cc(-c2cnc(C(C)(O)CCC(C)(C)C(=O)O)s2)c1 (single isomer, unassigned) [Example 33D-3]
28 | < 100 | Cc1cc(Nc2nccc(C(F)(F)F)n2)cc(-c2cnc(C(C)(O)c3ccc(C(=O)O)s3)s2)c1 (single isomer, unassigned) [Example 33D-21]

Same assay, conditions: rhSYK Activity, Table 45

Row | IC50 [nM] | Compound
29 | 100 to 1000 | Cc1cc(Nc2nccc(C(F)(F)F)n2)cc(-c2cnc(C3(O)CCCN(C(=O)OC(C)(C)C)CC3)s2)c1 (single isomer, unassigned) [45-1]

Same assay, conditions: rhSYK Activity, Table 54D

Row | IC50 [nM] | Compound
30 | < 100 | Cc1cc(Nc2nccc(C(F)(F)F)n2)cc(-c2cnc(C3(O)CCCN(C(=O)CC(N)=O)CC3)s2)c1 (single isomer, unassigned) [Example 54D-20]
31 | < 100 | Cc1cc(Nc2nccc(C(F)(F)F)n2)cc(-c2cnc(C3(O)CCCN(C(=O)CC(=O)O)CC3)s2)c1 (single isomer, unassigned) [Example 54D-25]
32 | < 100 | Cc1cc(Nc2nccc(C(F)(F)F)n2)cc(-c2cnc(C3(O)CCCN(C(=O)C(O)CO)CC3)s2)c1 (single isomer, unassigned) [Example 54D-28]
33 | < 100 | Cc1cc(Nc2nccc(C(F)(F)F)n2)cc(-c2cnc(C3(O)CCCN(C(=O)c4cnn[nH]4)CC3)s2)c1 (single isomer, unassigned) [Example 54D-36]
34 | < 100 | Cc1cc(Nc2nccc(C(F)(F)F)n2)cc(-c2cnc(C3(O)CCCN(C(=O)c4cnon4)CC3)s2)c1 (single isomer, unassigned) [Example 54D-38]
35 | < 100 | Cc1cc(Nc2nccc(C(F)(F)F)n2)cc(-c2cnc(C3(O)CCCN(C(=O)CCC(N)=O)CC3)s2)c1 (single isomer, unassigned) [Example 54D-41]
36 | < 100 | Cc1cc(Nc2nccc(C(F)(F)F)n2)cc(-c2cnc(C3(O)CCCN(C(=O)c4cnnn4C)CC3)s2)c1 (single isomer, unassigned) [Example 54D-50]
37 | < 100 | Cc1cc(Nc2nccc(C(F)(F)F)n2)cc(-c2cnc(C3(O)CCCN(C(=O)Cn4ccnn4)CC3)s2)c1 (single isomer, unassigned) [Example 54D-52]
38 | < 100 | Cc1cc(Nc2nccc(C(F)(F)F)n2)cc(-c2cnc(C3(O)CCCN(C(=O)c4nnnn4C)CC3)s2)c1 (single isomer, unassigned) [Example 54D-57]
39 | < 100 | Cc1cc(Nc2nccc(C(F)(F)F)n2)cc(-c2cnc(C3(O)CCCN(C(=O)Cc4nnn[nH]4)CC3)s2)c1 (single isomer, unassigned) [Example 54D-59]
40 | < 100 | CCOC(=O)CC(=O)N1CCCC(O)(c2ncc(-c3cc(C)cc(Nc4nccc(C(F)(F)F)n4)c3)s2)CC1 (single isomer, unassigned) [Example 54D-75]
41 | < 100 | Cc1cc(Nc2nccc(C(F)(F)F)n2)cc(-c2cnc(C3(O)CCCN(C(=O)C(C)(CO)CO)CC3)s2)c1 (single isomer, unassigned) [Example 54D-79]
42 | < 100 | Cc1cc(Nc2nccc(C(F)(F)F)n2)cc(-c2cnc(C3(O)CCCN(C(=O)c4[nH]nnc4Cl)CC3)s2)c1 (single isomer, unassigned) [Example 54D-100]
43 | < 100 | Cc1cc(Nc2nccc(C(F)(F)F)n2)cc(-c2cnc(C3(O)CCCN(C(=O)c4nn[nH]c4C(F)(F)F)CC3)s2)c1 (single isomer, unassigned) [Example 54D-107]
44 | < 100 | Cc1cc(Nc2nccc(C(F)(F)F)n2)cc(-c2cnc(C3(O)CCCN(C(=O)c4n[nH]c(C(F)(F)F)n4)CC3)s2)c1 (single isomer, unassigned) [Example 54D-109]
45 | < 100 | Cc1cc(Nc2nccc(C(F)(F)F)n2)cc(-c2cnc(C3(O)CCCN(S(N)(=O)=O)CC3)s2)c1 (single isomer, unassigned) [Example 54D-116]
46 | < 100 | Cc1cc(Nc2nccc(C(F)(F)F)n2)cc(-c2cnc(C3(O)CCCN(C(N)=O)CC3)s2)c1 (single isomer, unassigned) [Example 54D-119]
47 | < 100 | Cc1cc(Nc2nccc(C(F)(F)F)n2)cc(-c2cnc(C3(O)CCCN(C(=O)CO)CC3)s2)c1 (single isomer, unassigned) [Example 54D-122]
48 | < 100 | Cc1cc(Nc2nccc(C(F)(F)F)n2)cc(-c2cnc(C3(O)CCCN(C(=O)c4nc[nH]n4)CC3)s2)c1 (single isomer, unassigned) [Example 54D-124]
